Experimental data published in patent US20110306636A1, “OXAZOLE PYRIDINE DERIVATIVES USEFUL AS S1P1 RECEPTOR AGONISTS” (Merck Serono SA, priority 2009, published 2011).
Structures can show the parent of a compound that is named as a salt. Where two headings read alike, the source gives them in different places.

How the values were obtained:
[1] = target: T1, S1P1 (Homo sapiens, UniProt P21453); assay: 35S-GTPγS binding assay, S1P1 membranes; type: biochemical; details: membranes from CHO cells expressing S1P1; read-out: S1P1/GTPG EC50
Protocol: (§1) Membranes Preparation: Membranes were prepared from CHO cells expressing S1P1 or S1P3 for use in ligand and 35S-GTPγS binding studies. Cells were suspended in 50 mM TRIS, pH 7.4, 2 mM EDTA, 250 mM Sucrose (buffer A) and 1× Complete protease inhibitor cocktail (Roche), and disrupted at 4° C. by N2 decompression using a cell disruption bomb (Parr Instrument). Following centrifugation at 1000 RPM for 10 min at 4° C., the supernatant was diluted (2×) in buffer A and centrifuged again at 19000 RPM for 75 min at 4° C. The pellet was then suspended in 10 mM HEPES, pH 7.4, 1 mM EDTA, 250 mM Sucrose (Buffer B), and 1× Complete EDTA-free protease inhibitor cocktail and homogenized using a potter. Membranes were flash frozen in liquid N2 and stored at −80° C.
(§2) Measurements of 35S-GTPγS Binding: Membranes (1 to 10 μg protein) prepared as described above, were incubated in 96-well Scintiplates (PerkinElmer) with test compounds diluted in DMSO, in 140 μl of 20 mM HEPES, pH 7.4, 10 mM MgCl2, 2 μg/well Saponin, 0.2% fatty acid free BSA (Assay buffer), 125 mM NaCl and 1.5 μM GDP. The assay was initiated with the addition of 60 μl of 1.5 nM [35S]-GTPγS (1100 Ci/mmol; GE Healthcare) in assay buffer. After 60 min incubation at 30° C. on a shaker, plates were centrifuged for 10 min at 2000 RPM. Supernatant was discarded and membrane bound radioactivity was measured on a PerkinElmer 1450 MicroBeta counter. Triplicate samples were averaged and expressed as % response relative to S1P activation in absence of compound (n=2).
The “potency” or the “activity” of the compounds is determined by the EC50 values as evaluated in the above described 35S-GTPγS binding assay.

[2] = target: T2, S1P3 (Homo sapiens, UniProt Q99500); assay: 35S-GTPγS binding assay, S1P3 membranes; type: biochemical; details: membranes from CHO cells expressing S1P3; read-out: S1P3/GTPG EC50
Protocol: as §1, §2

[3] = target: T1, S1P1; assay: Receptor binding assay, [33P]sphingosine 1-phosphate competition, S1P1
How it was run: (§3)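 SPA competition binding on CHO-cell membranes with 30 pM (S1P1) or 15 pM (S1P3) [33P]S1P in 50 mM HEPES pH 7.5, 5 mM MgCl2, 100 mM NaCl, 0.4% fatty acid-free BSA, 60 min at RT. Percent inhibition normalised to total binding and to non-specific binding (1000-fold unlabelled S1P), triplicates averaged.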

[4] = target: T2, S1P3; assay: Receptor binding assay, [33P]sphingosine 1-phosphate competition, S1P3
How it was run: as §3

[5] = target: T3, human S1P1 Receptor fused to the green fluorescent protein (EGFP) (Homo sapiens, UniProt P21453); assay: Internalization of S1P1 in S1P1-U2OS cells by cell imaging analysis; type: cell-based; details: 1 hour incubation, 384-well
T3 construct: host or cells: U2OS (human bone osteosarcoma epithelial cells), CMV promoter, geneticin selection
How it was run: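 Human U2OS osteosarcoma cells stably expressed human S1P1-EGFP. After 2 h serum starvation in 0.1% fatty-acid-free BSA medium, cells were treated with compounds for 1 h at 37 °C. Cells were then fixed and Hoechst-stained, and internalization was imaged as spots (receptor) per nucleus.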

[6] = 96 well-plate, read-out: S1P1 binding IC50 (M) (96 well-plate)
[7] = 384 well-plate, read-out: S1P1 binding IC50 (M) (384 well-plate)
[8] = 96 well-plate, read-out: S1P3 binding IC50 (M) (96 well-plate)
[9] = 384 well-plate, read-out: S1P3 binding IC50 (M) (384 well-plate)

T3 sequence (P21453 with tags, fused parts or gaps): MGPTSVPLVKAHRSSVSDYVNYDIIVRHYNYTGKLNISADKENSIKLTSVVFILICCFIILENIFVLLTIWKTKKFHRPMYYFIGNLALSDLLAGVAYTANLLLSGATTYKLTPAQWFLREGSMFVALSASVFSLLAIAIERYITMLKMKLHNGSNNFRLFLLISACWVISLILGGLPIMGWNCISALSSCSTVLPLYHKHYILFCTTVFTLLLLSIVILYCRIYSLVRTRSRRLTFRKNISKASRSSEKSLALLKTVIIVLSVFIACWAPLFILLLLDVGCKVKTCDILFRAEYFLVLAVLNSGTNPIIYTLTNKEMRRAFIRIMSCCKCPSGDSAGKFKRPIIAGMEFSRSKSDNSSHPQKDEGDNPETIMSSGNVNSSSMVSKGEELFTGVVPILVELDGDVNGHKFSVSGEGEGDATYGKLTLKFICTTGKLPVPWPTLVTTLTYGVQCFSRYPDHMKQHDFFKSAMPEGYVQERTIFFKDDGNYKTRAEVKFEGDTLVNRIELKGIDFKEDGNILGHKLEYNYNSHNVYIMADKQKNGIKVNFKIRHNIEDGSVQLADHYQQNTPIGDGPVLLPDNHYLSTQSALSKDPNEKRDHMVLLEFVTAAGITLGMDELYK
T1 sequence (P21453 whole entry, species assumed): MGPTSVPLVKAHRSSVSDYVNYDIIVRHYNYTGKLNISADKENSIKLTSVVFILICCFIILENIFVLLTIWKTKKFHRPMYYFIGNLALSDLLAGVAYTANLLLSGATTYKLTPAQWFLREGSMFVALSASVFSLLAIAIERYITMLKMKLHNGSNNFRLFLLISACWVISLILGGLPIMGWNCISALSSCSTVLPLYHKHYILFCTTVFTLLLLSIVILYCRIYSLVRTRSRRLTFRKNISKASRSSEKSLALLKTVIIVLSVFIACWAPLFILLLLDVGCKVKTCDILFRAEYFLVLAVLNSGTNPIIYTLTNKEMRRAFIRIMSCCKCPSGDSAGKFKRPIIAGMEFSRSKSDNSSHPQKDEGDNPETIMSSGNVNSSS
T2 sequence (Q99500 whole entry, species assumed): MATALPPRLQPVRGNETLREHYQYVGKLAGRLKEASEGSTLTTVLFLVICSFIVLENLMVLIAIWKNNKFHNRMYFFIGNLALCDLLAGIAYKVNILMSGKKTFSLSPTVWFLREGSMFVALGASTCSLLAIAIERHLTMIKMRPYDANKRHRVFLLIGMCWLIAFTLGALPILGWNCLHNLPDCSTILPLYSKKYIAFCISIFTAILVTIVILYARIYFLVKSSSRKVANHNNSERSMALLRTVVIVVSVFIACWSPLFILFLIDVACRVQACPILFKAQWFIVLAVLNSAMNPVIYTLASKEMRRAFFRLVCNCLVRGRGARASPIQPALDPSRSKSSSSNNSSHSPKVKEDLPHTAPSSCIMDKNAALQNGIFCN

Compound	EC50 [1]	EC50 [2]	IC50 [3, 6]	IC50 [3, 7]	IC50 [4, 8]	IC50 [4, 9]	EC50 [5]	melting point
COCc1cc(-c2nc(-c3ccnc(N)c3)no2)ccc1-c1ccccc1C [Example 15, 4-{5-[2-(methoxymethyl)-2′-methylbiphenyl-4-yl]-1,2,4-oxadiazol-3-yl}pyridin-2-amine, hydrochloride salt]	3.52 nM	414 nM	1.04e-08 M	–	–	–	6 nM	–
COCc1cc(-c2nc(-c3ccc(O)nc3)no2)ccc1N1CCCCC1C (stereo not drawn) [Example 22, 5-{5-[3-(methoxymethyl)-4-(2-methylpiperidin-1-yl)phenyl]-1,2,4-oxadiazol-3-yl}pyridin-2-ol]	5.29 nM	153 nM	1.3e-09 M	–	–	–	–	–
CCC1CCCCN1c1ccc(-c2nc(-c3ccc(N)nc3)no2)cc1COC (stereo not drawn) [Example 27, 5-{5-[4-(2-ethylpiperidin-1-yl)-3-(methoxymethyl)phenyl]-1,2,4-oxadiazol-3-yl}pyridin-2-amine]	13.4 nM	1660 nM	5.7e-09 M	–	–	–	–	–
COCc1cc(-c2nc(-c3cnc(NCCC(=O)O)c(Cl)c3)no2)ccc1-c1ccccc1C [Example 37, N-(3-chloro-5-{5-[2-(methoxymethyl)-2′-methylbiphenyl-4-yl]-1,2,4-oxadiazol-3-yl}pyridin-2-yl)-beta-alanine, hydrochloride salt]	2.37 nM	2110 nM	1.07e-09 M	1.06e-08 M	2.86e-06 M	1.5e-05 M	19.8 nM	–
COCc1cc(-c2nc(-c3cnc(N)c(Cl)c3)no2)ccc1-c1ccccc1Cl [Example 47, 3-chloro-5-{5-[2′-chloro-2-(methoxymethyl)biphenyl-4-yl]-1,2,4-oxadiazol-3-yl}pyridin-2-amine]	–	–	6.02e-09 M	–	2e-05 M	–	26.8 nM	182 to 184 °C
COCc1cc(-c2nc(-c3cnc(N)c(C)c3)no2)ccc1-c1ccccc1F [Example 79, 5-{5-[2′-fluoro-2-(methoxymethyl)biphenyl-4-yl]-1,2,4-oxadiazol-3-yl}-3-methylpyridin-2-amine]	–	–	–	2.15e-08 M	–	–	58.7 nM	162 to 164 °C

Continued by falling EC50 [5], values first:

EC50 [1]	EC50 [2]	IC50 [3, 6]	IC50 [3, 7]	IC50 [4, 8]	IC50 [4, 9]	EC50 [5]	melting point	Compound
–	–	–	1.49e-08 M	–	–	73.5 nM	163 to 165 °C	CCOc1cc(-c2nc(-c3cnc(N)c(C)c3)no2)ccc1-c1ccccc1C(F)(F)F [Example 77, 5-{5-[2-ethoxy-2′-(trifluoromethyl)biphenyl-4-yl]-1,2,4-oxadiazol-3-yl}-3-methylpyridin-2-amine]
5.87 nM	1460 nM	1.89e-08 M	–	1.65e-05 M	–	44.9 nM	–	COCc1cc(-c2nc(-c3cnc(N)c(Cl)c3)no2)ccc1-c1ccccc1C [Example 14, 3-chloro-5-{5-[2-(methoxymethyl)-2′-methylbiphenyl-4-yl]-1,2,4-oxadiazol-3-yl}pyridin-2-amine]
–	–	–	2.16e-08 M	–	–	37.4 nM	143 to 145 °C	COCc1cc(-c2nc(-c3cnc(N)c(C)c3)no2)ccc1-c1ccccc1Cl [Example 76, 5-{5-[2′-chloro-2-(methoxymethyl)biphenyl-4-yl]-1,2,4-oxadiazol-3-yl}-3-methylpyridin-2-amine]
4.11 nM	2690 nM	1.75e-09 M	3.2e-08 M	6.07e-06 M	7.85e-06 M	32 nM	–	COCc1cc(-c2nc(-c3ccc(N)nc3)no2)ccc1-c1ccccc1C [Example 4, 5-{5-[2-(methoxymethyl)-2′-methylbiphenyl-4-yl]-1,2,4-oxadiazol-3-yl}pyridin-2-amine, hydrochloride salt]
